Assay results taken from patent US11116710B2, “Antimicrobial compositions” (SYMRISE AG, priority 2016, dated 2021).
In brackets after ≈: the same amount, converted by molar mass.

Columns and labels:
[1] = tested on: Staphylococcus aureus; assay: Minimum inhibitory concentration (MIC) according to DIN 58940; assay type: cell-based; conditions: Staphylococcus aureus, read-out: MIC values (ppm) Staphylococcus aureus
Method: (§1) The invention will be further described in the following on the basis of examples. The examples serve to illustrate the invention, without thereby restricting the scope of protection of the claims. For examples, 1 to 11 preservative challenge tests according to European Pharmacopoeia 7.0 (5.1.3. Efficacy of antimicrobial preservation) were used. For example 12, activities were determined by measuring minimum inhibitory concentrations (MIC values) according to DIN 58940. All numerical information relates to weight, unless stated otherwise.
(§2) The activity of Benzoic acid-3-hydroxypropylester (BAHP), Furoic acid-3-hydroxypropylester (FAHP) and Anisic acid-3-hydroxypropylester (AAHP), Salicylic acid hydroxyethyl ester (SAHE) and Salicylic acid hydroxypropyl ester (SAHP) was determined against the microorganisms Staphylococcus aureus, Candida albicans, Aspergillus brasiliensis, Pseudomonas aeruginosa and Escherichia coli. The activity of N-Methylsalicylamid (MSA), Furoic acid methylester (FAME) and Salicylamide (SA) was determined against the microorganism Aspergillus brasiliensis.

[2] = tested on: Escherichia coli; assay: as above; assay type: cell-based; conditions: Escherichia coli, read-out: MIC values (ppm) Escherichia coli
Method: as §1, §2

[3] = tested on: Candida albicans; assay: as above; assay type: cell-based; conditions: Candida albicans, read-out: MIC values (ppm) Candida aibicans
Method: as §1, §2

[4] = tested on: Pseudomonas aeruginosa; assay: as above; assay type: cell-based; conditions: Pseudomonas aeruginosa, read-out: MIC values (ppm) Pseudomonas aeruginosa
Method: as §1, §2

[5] = tested on: Aspergillus brasiliensis; assay: as above; assay type: cell-based; conditions: Aspergillus brasiliensis, read-out: MIC values (ppm) Aspergillus brasiliensis
Method: as §1, §2

[6] = tested on: spores of A. brasiliensis; assay: Preservative challenge test (European Pharmacopoeia 7.0, 5.1.3) in anionic emulsion with Dracorin CE; assay type: cell-based, Aspergillus brasiliensis
Method: as §1
(§3) Activity of Benzoic acid-3-hydroxypropylester (BAHP) against the microorganisms E. coli, P. aeruginosa, S. aureus, C. albicans and spores of A. brasiliensis was evaluated in an anionic emulsion with Dracorin CE as emulsifier. The pH value of the emulsion was 5.5.
(§4) Activity of Furoic acid-3-hydroxypropylester (FAHP) against the microorganisms E. coli, P. aeruginosa, S. aureus, C. albicans and spores of A. brasiliensis was evaluated in an anionic emulsion with Dracorin CE as emulsifier. The pH value of the emulsion was 5.5.
(§5) Activity of Anisic acid-3-hydroxypropylester (AAHP) against the microorganisms E. coli, P. aeruginosa, S. aureus, C. albicans and spores of A. brasiliensis was evaluated in an anionic emulsion with Dracorin CE as emulsifier. The pH value of the emulsion was 5.5.
Activity of N-Methylsalicylamid (MSA) against the microorganism A. brasiliensis was evaluated in an anionic emulsion with Dracorin CE as emulsifier. The pH value of the emulsion was 5.5.
Activity of Furoic acid methylester (FAME) against the microorganism A. brasiliensis was evaluated in an anionic emulsion with Dracorin CE as emulsifier. The pH value of the emulsion was 5.5.
Activity of Salicylamide (SA) against the microorganism A. brasiliensis was evaluated in an anionic emulsion with Dracorin CE as emulsifier. The pH value of the emulsion was 5.5.
Activity of Salicylic acid hydroxyethyl ester (SAHE) against the microorganism A. brasiliensis was evaluated in an anionic emulsion with Dracorin CE as emulsifier. The pH value of the emulsion was 5.5.
Activity of Salicylic acid hydroxypropyl ester (SAHP) against the microorganism A. brasiliensis was evaluated in an anionic emulsion with Dracorin CE as emulsifier. The pH value of the emulsion was 5.5.
Activity of Benzoic acid-3-hydroxypropylester (BAHP) against spores of A. brasiliensis was evaluated in an anionic emulsion with Dracorin CE as emulsifier. The pH value of the emulsion was 7.
Activity of Anisic acid-3-hydroxypropylester (AAHP) against spores of A. brasiliensis was evaluated in an anionic emulsion with Dracorin CE as emulsifier. The pH value of the emulsion was 7. […]

[7] = tested on: S. aureus; assay: as above; assay type: cell-based, Staphylococcus aureus; conditions: pH 5.5
Method: as §1, §3, §4, §5
as §3, with “Synergistic effects between” for “Activity of”, “(BAHP) and 1,2-Octanediol were determined. Activity of BAHP, 1,2-Octanediol and the combination of BAHP and 1,2-Octanediol” for “(BAHP)”

[8] = tested on: P. aeruginosa; assay: as above; assay type: cell-based, Pseudomonas aeruginosa; conditions: pH 5.5
Method: as §1, §3, §4, §5
as §3, with “Synergistic effects between” for “Activity of”, “(BAHP) and 1,2-Octanediol were determined. Activity of BAHP, 1,2-Octanediol and the combination of BAHP and 1,2-Octanediol” for “(BAHP)”

[9] = tested on: C. albicans; assay: as above; assay type: cell-based, Candida albicans; conditions: pH 5.5
Method: as §1, §3, §4, §5
as §3, with “Synergistic effects between” for “Activity of”, “(BAHP) and 1,2-Octanediol were determined. Activity of BAHP, 1,2-Octanediol and the combination of BAHP and 1,2-Octanediol” for “(BAHP)”

[10] = tested on: E. coli; assay: as above; assay type: cell-based, Escherichia coli; conditions: pH 5.5
Method: as §1, §3, §4, §5
as §3, with “Synergistic effects between” for “Activity of”, “(BAHP) and 1,2-Octanediol were determined. Activity of BAHP, 1,2-Octanediol and the combination of BAHP and 1,2-Octanediol” for “(BAHP)”

[11] = day 28, 1.0% in anionic emulsion, pH 5.5
[12] = day 2, 0.75% in anionic emulsion
[13] = day 7, 0.75% in anionic emulsion
[14] = day 14, 0.75% in anionic emulsion
[15] = day 28, 0.75% in anionic emulsion
[16] = day 2, 1.0% in anionic emulsion
[17] = day 7, 1.0% in anionic emulsion
[18] = day 14, 1.0% in anionic emulsion
[19] = day 28, 1.0% in anionic emulsion

Row | SMILES | MIC [1] | MIC [2] | MIC [3] | MIC [4] | MIC [5] | Colony counts (cfu/g formulation) [6, 11] | Colony counts (cfu/g formulation) [7, 13] | Colony counts (cfu/g formulation) [7, 14] | Colony counts (cfu/g formulation) [7, 15] | Colony counts (cfu/g formulation) [8, 12] | Colony counts (cfu/g formulation) [8, 13] | Colony counts (cfu/g formulation) [8, 14] | Colony counts (cfu/g formulation) [8, 15] | Colony counts (cfu/g formulation) [9, 13] | Colony counts (cfu/g formulation) [9, 14] | Colony counts (cfu/g formulation) [9, 15] | Colony counts (cfu/g formulation) [10, 12] | Colony counts (cfu/g formulation) [10, 13] | Colony counts (cfu/g formulation) [10, 14] | Colony counts (cfu/g formulation) [10, 15] | other results
1 | O=C(OCCO)c1ccccc1O [SAHE, Salicylic acid hydroxyethyl ester] | > 1000 µg/mL | 2000 µg/mL (≈ 11 mM) | 2500 µg/mL (≈ 13.7 mM) | > 1000 µg/mL | 2500 µg/mL (≈ 13.7 mM) | – | – | – | – | – | – | – | – | – | – | – | – | – | – | – | –
2 | COC(=O)c1ccco1 [FAME, Furoic acid methylester] | – | – | – | – | > 1000 µg/mL | <10 cfu/g formulation | – | – | – | – | – | – | – | – | – | – | – | – | – | – | –
3 | O=C(OCCCO)c1ccccc1O [SAHP, Salicylic acid hydroxypropyl ester] | 1000 µg/mL (≈ 5.1 mM) | 2500 µg/mL (≈ 12.7 mM) | 2500 µg/mL (≈ 12.7 mM) | > 1000 µg/mL | 1000 µg/mL (≈ 5.1 mM) | – | – | – | – | – | – | – | – | – | – | – | – | – | – | – | –
4 | CCCCCCC(O)CO (centres unmarked) [1,2-Octanediol, reference compound] | – | – | – | – | – | – | <10 cfu/g formulation | <10 cfu/g formulation | <10 cfu/g formulation | <10 cfu/g formulation | <10 cfu/g formulation | <10 cfu/g formulation | <10 cfu/g formulation | <10 cfu/g formulation | <10 cfu/g formulation | <10 cfu/g formulation | <10 cfu/g formulation | <10 cfu/g formulation | <10 cfu/g formulation | <10 cfu/g formulation | Colony counts (cfu/g formulation) [7, 12]: <10 cfu/g formulation
5 | O=C(OCCCO)c1ccccc1 [BAHP, Benzoic acid-3-hydroxypropylester] | 5000 µg/mL (≈ 27.7 mM) | 2000 µg/mL (≈ 11.1 mM) | 2500 µg/mL (≈ 13.9 mM) | > 5000 µg/mL | 2500 µg/mL (≈ 13.9 mM) | <10 cfu/g formulation | <10 cfu/g formulation | <10 cfu/g formulation | <10 cfu/g formulation | <10 cfu/g formulation | <10 cfu/g formulation | <10 cfu/g formulation | <10 cfu/g formulation | <10 cfu/g formulation | <10 cfu/g formulation | <10 cfu/g formulation | <10 cfu/g formulation | <10 cfu/g formulation | <10 cfu/g formulation | <10 cfu/g formulation | Colony counts (cfu/g formulation) [7, 16]: <10 cfu/g formulation; Colony counts (cfu/g formulation) [7, 17]: <10 cfu/g formulation; Colony counts (cfu/g formulation) [7, 18]: <10 cfu/g formulation; Colony counts (cfu/g formulation) [7, 19]: <10 cfu/g formulation; Colony counts (cfu/g formulation) [8, 16]: <10 cfu/g formulation; Colony counts (cfu/g formulation) [8, 17]: <10 cfu/g formulation; Colony counts (cfu/g formulation) [8, 18]: <10 cfu/g formulation; Colony counts (cfu/g formulation) [8, 19]: <10 cfu/g formulation; Colony counts (cfu/g formulation) ([6]; day 14, 1.0% in anionic emulsion, pH 5.5): <10 cfu/g formulation; Colony counts (cfu/g formulation) ([6]; day 14, 1.0% in anionic emulsion, pH 7): <10 cfu/g formulation; Colony counts (cfu/g formulation) ([6]; day 28, 1.0% in anionic emulsion, pH 7): <10 cfu/g formulation; Colony counts (cfu/g formulation) [9, 17]: <10 cfu/g formulation; Colony counts (cfu/g formulation) [9, 18]: <10 cfu/g formulation; Colony counts (cfu/g formulation) [9, 19]: <10 cfu/g formulation; Colony counts (cfu/g formulation) [10, 16]: <10 cfu/g formulation; Colony counts (cfu/g formulation) [10, 17]: <10 cfu/g formulation; Colony counts (cfu/g formulation) [10, 18]: <10 cfu/g formulation; Colony counts (cfu/g formulation) [10, 19]: <10 cfu/g formulation
